According to ChEMBL document CHEMBL3751775, “Identification of B. anthracis N(5)-carboxyaminoimidazole ribonucleotide mutase (PurE) active site binding compounds via fragment library screening” (Bioorg Med Chem, 2016):

How the values were obtained:
[1] = Binding affinity to Bacillus anthracis PurE by intrinsic tryptophan fluorescence analysis
[2] = Binding affinity to Bacillus anthracis PurE by Surface Plasmon Resonance analysis
Bacillus anthracis [3] = test: Inhibition of Bacillus anthracis PurE using CAIR as substrate at 100 uM preincubated for 5 mins followed by substrate addition by UV spectroscopic analysis
[4] = Binding affinity to Escherichia coli PurE by Surface Plasmon Resonance analysis
Bacillus anthracis [5] = test: Inhibition of Bacillus anthracis PurE using CAIR as substrate at 25 uM preincubated for 5 mins followed by substrate addition by UV spectroscopic analysis
[6] = Aqueous solubility of the compound; assay type: physicochemical

Structure (SMILES)	Kd ([1]; read-out: Kd)	Kd [2]	other results
Cc1ccc(C(=S)c2nnns2)cc1	81.3 µM	60.8 µM	inhibition (Bacillus anthracis [3]): 36%
Cc1cnc(NC(=O)c2ccoc2C)s1	39.6 µM	20.3 µM	
NCc1cc(-c2ccccc2Cl)on1	402 µM	444 µM	
COc1ccc(-c2cc(N)[nH]n2)cc1	214 µM	149 µM	
COc1ccc2ncc(N)cc2c1	73.8 µM	261 µM	
Nc1c([N+](=O)[O-])ncn1[C@@H]1O[C@H](COP(=O)(O)O)[C@@H](O)[C@H]1O			Kd [4]: 0.086 µM
Nc1cncn1[C@@H]1O[C@H](COP(=O)(O)O)[C@@H](O)[C@H]1O	283 µM		
Cc1ccc(C(N)c2ccncc2)cc1 (stereo not drawn)		707 µM	Kd [1]: Not Active
CCc1ccc(C(=O)Nc2nncs2)s1	19.8 µM	13.5 µM	inhibition (Bacillus anthracis [5]): 49%
O=C(O)c1cc2cc(F)ccc2[nH]1 [5-FLUOROINDOLE-2-CARBOXYLIC ACID]		234 µM	
Oc1cc(Cl)c(Cl)cc1O	182 µM	103 µM	
O=C(O)c1ccc(O)c(O)c1 [PROTOCATECHUIC ACID]		274 µM	solubility [6]: > 1200 µM
CCOc1ccccc1C(=S)N1CCOCC1	61.6 µM	73 µM	
Nc1nn2c(-c3ccccc3)nnc2s1	604 µM	121 µM	
NC(=S)N1CCc2ccccc21	35.7 µM	35.3 µM	
CCOc1cc(CO)c(Br)cc1OC	367 µM	157 µM	
Cc1cc(C(=O)Nc2cccc(F)c2)no1	95.4 µM	79.8 µM	
